Test results reported in article PMC8391127, “Triterpenoid–PEG Ribbons Targeting Selectivity in Pharmacological Effects” (Biomedicines, 2021).
Like-named read-outs stand apart in the source and are kept apart here. Marks after values point to notes of the source that are not given here.

What was measured:
Bacillus cereus = experiment: Antimicrobial screening, resazurine test; assay type: cell-based; settings: Bacillus cereus, B. cereus, read-out: Inhibition of the microorganism; for inhibition at 25 µg/mL: c = 25 µg·mL-1; for inhibition at 50 µg/mL: c = 50 µg·mL-1; for inhibition at 100 µg/mL: c = 100 µg·mL-1
Description: (§1) The resazurine test was used to evaluate this activity.
(§2) The cell inoculum was made in Mueller–Hinton broth (10 mL). Colonies of cells were inoculated from the solid medium that was cultivated for 24 h under optimum conditions. A part of the inoculum was diluted to get suspension with an optical density 0.6 to 0.9 McF. An aliquot amount (1 mL) was taken and diluted with additional volume of the medium (19 mL). The stored solutions of the tested compounds were made at a concentration c = 200 µg.mL^−1. The stored suspensions of the cells, MHB medium, solutions of the antibiotics specific for the given bacteria (vancomycin for S. aureus and E. faecalis, kanamycin for E. coli and P. aeruginosa, and tetracycline for B. cereus), and the solutions of the compounds were pipetted into the microtitration plates. Subsequently, a concentration sequence of the tested compounds was made (c = 100, 50, and 25 µg.mL^−1). The content of the microtitration plates was cultivated for 24 h under optimum conditions for the given bacteria. A solution of resazurine was made, based on a dilution of its stored solution (c = 0.15 mg.mL^−1; 2 mL) into the MHB medium (18 mL). Then, it was pipetted into the microtitration plates that were cultivated for an additional 1 h. Finally, fluorescence measurement (excitation at 560 nm, emission at 590 nm) was made, and the inhibition of the bacterium was determined.
(§3) 2. Antimicrobial screening tests
(§4) Antimicrobial activity of the target molecular ribbons 8a, 12a, 8b, 12b, 4c, 6c, 6d and 8d, and […]
(§5) aeruginosa, Staphylococcus aureus and Enterococcus faecalis. The resazurine test was used to […]
(§6) ribbons which have been achieved in this investigation.
(§7) Table S1. Antimicrobial activity, inhibition of the microorganism [%]
(§8) Comp. Staphylococcus aureus Comp. Escherichia coli […]
(§9) µg·mL-1 µg·mL-1 µg·mL-1 µg·mL-1 µg·mL-1 µg·mL-1
(§10) Comp. Bacillus cereus Comp. Pseudomonas aeruginosa

Enterococcus faecalis = experiment: Antimicrobial screening, resazurine test; assay type: cell-based; settings: Enterococcus faecalis, E. faecalis, read-out: Inhibition of the microorganism; for inhibition at 25 µg/mL: c = 25 µg·mL-1; for inhibition at 50 µg/mL: c = 50 µg·mL-1; for inhibition at 100 µg/mL: c = 100 µg·mL-1
Description: as §1, §2, §3, §4, §5, §6, §7, §8, §9, §10

Escherichia coli = experiment: Antimicrobial screening, resazurine test; assay type: cell-based; settings: E. coli; for inhibition at 25 µg/mL / inhibition at 50 µg/mL / inhibition at 100 µg/mL: Escherichia coli, read-out: Inhibition of the microorganism; for inhibition at 50 µg/mL: c = 50 µg·mL-1; for inhibition at 100 µg/mL: c = 100 µg·mL-1
Description: as §1, §2, §3, §4, §5, §6, §7, §8, §9, §10

Pseudomonas aeruginosa = experiment: Antimicrobial screening, resazurine test; assay type: cell-based; settings: P. aeruginosa; for inhibition at 25 µg/mL: c = 25 µg·mL-1, read-out: Inhibition of the microorganism; for inhibition at 50 µg/mL: c = 50 µg·mL-1, read-out: Inhibition of the microorganism; for inhibition at 100 µg/mL: c = 100 µg·mL-1, read-out: Inhibition of the microorganism
Description: as §1, §2, §3, §4, §5, §6, §7, §8, §9, §10

Staphylococcus aureus = experiment: Antimicrobial screening, resazurine test; assay type: cell-based; settings: S. aureus; for inhibition at 25 µg/mL / inhibition at 50 µg/mL / inhibition at 100 µg/mL: Staphylococcus aureus, read-out: Inhibition of the microorganism; for inhibition at 50 µg/mL: c = 50 µg·mL-1; for inhibition at 100 µg/mL: c = 100 µg·mL-1
Description: as §1, §2, §3, §4, §5, §6, §7, §8, §9, §10

[1] = Ability to form supramolecular gel; assay type: physicochemical; settings: 1% w/v in solvent, ultrasound 30 min, heated to boiling, cooled to r.t. 24 h
Description: The solutions of the studied compounds 8a, 12a, 8b, 12b, 4c, 6c, 6d, and 8d (1%, w/v) in the appropriate solvent were mixed with ultrasound for 30 min, then heated to the boiling points of the used solvents, and then allowed to cool down to the r.t. for 24 h. An example of the resulting gels that were produced from 8a, 4c, 6c, and 6d is shown in the Supplementary Material, Figure S1.

[2] = system: HIV-1 (laboratory strain NL4-3); experiment: microbe, parasite or virus in culture; assay type: cell-based
Description: The cell lines were maintained under standard cell culture conditions at 37 °C and 5% CO2 in a humid environment. Cells were subcultured twice or three times a week using the standard trypsinization procedure.

[3] = Self-assembly by UV-VIS spectrometry in methanol/water mixtures; assay type: physicochemical; settings: 0-140 h
Description: The self-assembly of the selected compounds 8a, 12a, 8b, 12b, 4c, 6c, 6d, and 8d was measured using UV absorption in methanol/water mixtures with a constant concentration of the studied compound for 7 days in one-hour intervals on the first day, and in 24 h intervals all following days. The stock solutions of the studied compounds were prepared at a concentration of 1 mg·mL^−1 in water. Then, a series of methanol/water mixtures were prepared starting from a methanol/water ratio 100/0 down to 0/100 in 20% steps. The stock solutions of the studied compounds (0.15 mL) were added separately to each vial containing methanol/water mixtures (3 mL), and the UV spectra were recorded in the wavelength range of 200–400 nm. […] For the compounds 8a, 12a, 12b and 6d, the details are presented in the Supplementary Material; see Figure S2.
Supramolecular self-assembly was studied on the basis of the UV-VIS spectra of the compounds in several methanol/water mixtures stepwise during the time interval 0-140 h. Here we show compounds 8a, 12a, 12b and 6d as examples, with which the irregularities in the UV-VIS spectra were either well pronounced (8a and 12a; Figure S2), or no substantial irregularity was detected (12b and 6d).
Figure S2. UV-VIS spectra of 8a (top) and 12a (bottom) measured in the interval 0-140 h.
During that time interval a new maximum appeared at 300 nm wavelength, and the shape of the curves is different than in any of the other intervals of measurement. […]

## CC1(C)C=C2[C@H]3CC[C@@H]4[C@@]5(C)CCC(=O)C(C)(C)[C@@H]5CC[C@@]4(C)[C@]3(C)CC[C@@]2(C(=O)NCCOCCOCCOCCn2cc(CO[C@H]3CC[C@]4(C)[C@H]5CC=C6C7CC(C)(C)CC[C@]7(C(=O)O)CC[C@@]6(C)[C@]5(C)CC[C@H]4C3(C)C)nn2)CC1 (stereo partly shown) [6c]
Bacillus cereus
  inhibition at 25 µg/mL: 7 ± 1%
  inhibition at 50 µg/mL: 19 ± 2.9%
  inhibition at 100 µg/mL: 13 ± 2%
Enterococcus faecalis
  inhibition at 25 µg/mL: 0 to 1%
  inhibition at 50 µg/mL: 25 ± 3.8%
  inhibition at 100 µg/mL: 36 ± 5.4%
Escherichia coli; c = 25 µg·mL-1
  inhibition at 25 µg/mL: 10 ± 1.5%
Escherichia coli
  inhibition at 50 µg/mL: 18 ± 2.7%
  inhibition at 100 µg/mL: 30 ± 4.5%
Pseudomonas aeruginosa
  inhibition at 25 µg/mL: 12 ± 1.8%
  inhibition at 50 µg/mL: 69 ± 10.4%
  inhibition at 100 µg/mL: 60 ± 9%
Staphylococcus aureus; c = 25 µg·mL-1
  inhibition at 25 µg/mL: 13 ± 2%
Staphylococcus aureus
  inhibition at 50 µg/mL: 51 ± 7.7%
  inhibition at 100 µg/mL: 27 ± 4%
[1]
  Gel formation: produced a gel in glycerol

## CC1(C)CC[C@]2(C(=O)O)CC[C@]3(C)C(=CC[C@@H]4[C@@]5(C)CC[C@H](OCc6cn(CCOCCOCCOCCNC(=O)[C@]78CCC(C)(C)CC7C7=CC[C@@H]9[C@@]%10(C)CC[C@H](O)C(C)(C)[C@@H]%10CC[C@@]9(C)[C@]7(C)CC8)nn6)C(C)(C)[C@@H]5CC[C@]43C)C2C1 (stereo partly shown) [8a]
Bacillus cereus
  inhibition at 25 µg/mL: 0 to 1%
  inhibition at 50 µg/mL: 0 to 1%
  inhibition at 100 µg/mL: 0 to 1%
Enterococcus faecalis
  inhibition at 25 µg/mL: 17 ± 2.6%
  inhibition at 50 µg/mL: 28 ± 4.2%
  inhibition at 100 µg/mL: 32 ± 4.8%
Escherichia coli; c = 25 µg·mL-1
  Inhibition of the microorganism: 51 ± 7.7 ^e %
  inhibition at 25 µg/mL: > 50%
Escherichia coli
  inhibition at 50 µg/mL: 24 ± 3.6%
  inhibition at 100 µg/mL: 0 to 1%
Pseudomonas aeruginosa
  inhibition at 25 µg/mL: 21 ± 3.2%
  inhibition at 50 µg/mL: 17 ± 2.6%
  inhibition at 100 µg/mL: 14 ± 2.1%
Staphylococcus aureus; c = 25 µg·mL-1
  Inhibition of the microorganism: 52 ± 7.8 ^e %
  inhibition at 25 µg/mL: > 50%
Staphylococcus aureus
  inhibition at 50 µg/mL: 55 ± 8.3%
  inhibition at 100 µg/mL: 68 ± 10.2%
[2]; Human immunodeficiency virus 1, NL43, MT4, HIV-1 NL4-3 in MT-4 cells, read-out: EC50 ± SE against HIV-1
  EC50: 50.6 ± 7.8 µM
[1]
  Gel formation: produced a gel in ethylene glycol
[3]
  Irregularity in UV-VIS spectra (self-assembly): Irregularity was detected

## CC(C)OC(=O)[C@H](C)N[P@](=O)(CO[C@H](C)Cn1cnc2c(N)ncnc21)Oc1ccccc1 [tenofovir alafenamide, Tenofovir alafenamide, reference compound]
[2]; Human immunodeficiency virus 1, NL43, MT4, read-out: EC50 ± SE against HIV-1
  EC50: 0.0097 ± 0.0023 µM
